# Experimental data as given in US20230123334A1, “AMINO LIPID COMPOUND, PREPARATION METHOD THEREFOR, AND APPLICATION THEREOF” (SHENZHEN SHENXIN BIOTECHNOLOGY CO., LTD., priority 2020, published 2023).
# Tested on: HEK293 cells
# Experiment: Preliminary screening as DNA vectors, GFP transfection of HEK293 cells
# Type: cell-based
# Conditions: amino lipid/DOPE liposome with 75 ng plasmid DNA (psin-EGFP-IRES-Puro); number of GFP-expressing cells divided by total nuclei (Hoechst)
# Summary of the method: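 Lipid + DOPE liposomes (NaOAc, pH 5.6) complexed w/ 75 ng psin-EGFP-IRES-Puro, 30 min RT; added to 3-5×10^4 HEK293/well, 37° C. Hoechst 0.2 μg/mL at 20-24 h, imaged after further 20-24 h. Efficiency = GFP+ cells / total nuclei.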
row,Structure (SMILES),Absolute DNA transfection efficiency in HEK293 cells
1,CCCCCCCCCCCCN(CCCCCCCCCCCC)c1nc(NCCN2CCCCC2)nc(SCCCCCC)n1 [S6^2N12 D4],0.1%
2,CCCCCCCCCCCCNc1nc(NCCN2CCOCC2)nc(SCCCCCCCCCCC)n1 [S11N12 D2],3.1%
3,CCCCCCCCCCCCSc1nc(NCCCCCCCC)nc(NCCN2CCCC2)n1 [S12N8 D3],1.5%
4,CCCCCCCCCCCCCCCCCCSc1nc(NCCCCCCCCCCCCC)nc(NCCN2CCCC2)n1 [S18N13 D3],2.8%
5,CCCCCCCCCCCNc1nc(NCCCN2CCOCC2)nc(SCCCCCCCCCCC)n1 [S11N11 D8],2.5%
6,CCCCCCCCCCCCCCCCNc1nc(NCC2CCN(C)CC2)nc(SCCCCCCC)n1 [S7N16 D10],15.8%
7,CCCCCCCCCCCCCCCSc1nc(NCCCCCCCCCCCC)nc(NCCN2CCCCC2)n1 [S15N12 D4],0.1%
8,CCCCCCCCCCCCCCCCNc1nc(NCCCN2CCN(C)CC2)nc(SCCCCCCCCCCCCCC)n1 [S14N16 D9],0.9%
9,CCCCCCCCCCCCCCCCCCNc1nc(NCCCN(C)C)nc(SCCCCCC)n1 [S6N18 D6],21.8%
10,CCCCCCCCCCCCCCCCNc1nc(NCCN2CCOCC2)nc(SCCCCCCCCCCCCCCC)n1 [S15N16 D2],0.0%
11,CCCCCCCCCCCCCCCSc1nc(NCCCCCCCCCCCCC)nc(NCCCN(C)C)n1 [S15N13 D6],2.7%
12,CCCCCCCCCCCCNc1nc(NCCN(C)C)nc(SCCCCCCCCCC)n1 [S10N12 D1],1.8%
13,CCCCCCCCCCSc1nc(NCCN2CCCC2)nc(SCCCCCCC)n1 [S7S10 D3],19.4%
14,CCCCCCCCCSc1nc(NCCCN2CCOCC2)nc(SCCCCCCC)n1 [S7S9 D8],12.2%
15,CCCCCCCCSc1nc(NCCN2CCCC2)nc(SCCCCCCC)n1 [S7S8 D3],9.2%
16,CCCCCCCCCCCCNc1nc(NCCCN2CCN(C)CC2)nc(SCCCCCCCC)n1 [S8N12 D9],48.3%
17,CCCCCCCCCCCCCNc1nc(NCCCN2CCN(C)CC2)nc(SCCCCCCCCCCC)n1 [S11N13 D9],4.9%
18,CCCCCCCCCCCCCCCNc1nc(NCCN(CC)CC)nc(SCCCCCCCCCCC)n1 [S11N15 D7],5.2%
19,CCCCCCCCCCCCCCCNc1nc(NCCCN2CCN(C)CC2)nc(SCCCCCCCCCCCC)n1 [S12N15 D9],0.2%
20,CCCCCCCCCSc1nc(NCCCN2CCN(C)CC2)nc(SCCCCCCC)n1 [S7S9 D9],17.1%
21,CCCCCCCCCCCCCNc1nc(NCCN2CCOCC2)nc(SCCCCCCCCC)n1 [S9N13 D2],11.1%
22,CCCCCCCCCCSc1nc(NCCCCCCC)nc(NCCN2CCCCC2)n1 [S10N7 D4],3.6%
23,CCCCCCCCCCCCCCCCCCSc1nc(NCCN2CCOCC2)nc(SCCCCCCC)n1 [S7S18 D2],7.1%
24,CCCCCCCCCCCCCCCCSc1nc(NCCCCCCC)nc(NCCN2CCCCC2)n1 [S16N7 D4],6.9%

row,Structure (SMILES),Absolute DNA transfection efficiency in HEK293 cells
1,CCCCCCCCCCCCCCCCNc1nc(NCCN2CCCCC2)nc(SCCCCCCC)n1 [S7N16 D4],2.9%
2,CCCCCCCCCCCCCCCCSc1nc(NCCCCCCCCCCC)nc(NCC2CCN(C)CC2)n1 [S16N11 D10],0.0%
3,CCCCCCCCCCCCN(CCCCCCCCCCCC)c1nc(NCCN(CC)CC)nc(SCCCCCCCCCC)n1 [S10^2N12 D7],0.7%
4,CCCCCCCCCCCSc1nc(NCCCCCCC)nc(NCC2CCN(C)CC2)n1 [S11N7 D10],28.5%
5,CCCCCCCCCCCCCCCCCCSc1nc(NCCCCCCCC)nc(NCCN2CCCC2)n1 [S18N8 D3],9.6%
6,CCCCCCCCCCCCCCCSc1nc(NCCCN(C)C)nc(N(CCCCCCCCCCCC)CCCCCCCCCCCC)n1 [S15^2N12 D6],0.0%
7,CCCCCCCCCCCCCCCCCCSc1nc(NCCN2CCN(C)CC2)nc(SCCCCCC)n1 [S6S18 D5],15.1%
8,CCCCCCCCCCCNc1nc(NCCCN(C)C)nc(SCCCCCCCC)n1 [S8N11 D6],99.4%
9,CCCCCCCCCCCCCCCCNc1nc(NCC2CCN(C)CC2)nc(SCCCCCC)n1 [S6N16 D10],19.7%
10,CCCCCCCCCCCSc1nc(NCCCCCC)nc(NCCN2CCN(C)CC2)n1 [S11N6 D5],21.6%
11,CCCCCCCCCCCSc1nc(NCCCCCC)nc(NCCN(CC)CC)n1 [S11N6 D7],25.0%
12,CCCCCCCCCCCCCCCCNc1nc(NCCN2CCOCC2)nc(SCCCCCCCCCC)n1 [S10N16 D2],1.2%
13,CCCCCCCCCCCSc1nc(NCCN(CC)CC)nc(SCCCCCC)n1 [S6S11 D7],10.1%
14,CCCCCCCCCCCCCCCCCCNc1nc(NCCCN2CCOCC2)nc(SCCCCCCCC)n1 [S8N18 D8],5.1%
15,CCCCCCCCCCCCCCCCNc1nc(NCCCN(C)C)nc(SCCCCCCC)n1 [S7N16 D6],26.2%
16,CCCCCCCCCNc1nc(NCCN2CCOCC2)nc(SCCCCCC)n1 [S6N9 D2],0.2%
17,CCCCCCCCCSc1nc(NCCCCCCC)nc(NCCN2CCN(C)CC2)n1 [S9N7 D5],18.3%
18,CCCCCCCCCCCCCCCCNc1nc(NCCN(C)C)nc(SCCCCCCCCCCCCCCC)n1 [S15N16 D1],1.3%
19,CCCCCCCCCCCCCCCSc1nc(NCCCCCCCCCCCC)nc(NCCN(C)C)n1 [S15N12 D1],4.9%
20,CCCCCCCCCCCCSc1nc(NCCCCCCC)nc(NCC2CCN(C)CC2)n1 [S12N7 D10],5.8%
21,CCCCCCCCCCCCCCCCCCNc1nc(NCCCN(C)C)nc(SCCCCCCCCC)n1 [S9N18 D6],47.5%
22,CCCCCCCCCCCCCCCCCCSc1nc(NCCCN(C)C)nc(SCCCCCCC)n1 [S7S18 D6],5.5%
23,CCCCCCCCCCCCCCCCNc1nc(NCCCN2CCN(C)CC2)nc(SCCCCCCCCCCC)n1 [S11N16 D9],6.6%
24,CCCCCCCCSc1nc(NCCCCCC)nc(NCCN2CCCCC2)n1 [S8N6 D4],2.6%

row,Structure (SMILES),Absolute DNA transfection efficiency in HEK293 cells
1,CCCCCCCCCNc1nc(NCCN2CCCCC2)nc(SCCCCCC)n1 [S6N9 D4],0.4%
2,CCCCCCCCCCCCCCCSc1nc(NCCCCCCCCCCC)nc(NCCCN2CCOCC2)n1 [S15N11 D8],6.1%
3,CCCCCCCCCCCCNc1nc(NCCN2CCCCC2)nc(SCCCCCCCC)n1 [S8N12 D4],7.6%
4,CCCCCCCCNc1nc(NCCN(C)C)nc(SCCCCCCCC)n1 [S8N8 D1],9.3%
5,CCCCCCCCCCCCCCCCNc1nc(NCC2CCN(C)CC2)nc(SCCCCCCCCC)n1 [S9N16 D10],21.8%
6,CCCCCCCCCSc1nc(NCCCCCCCC)nc(NCC2CCN(C)CC2)n1 [S9N8 D10],17.2%
7,CCCCCCCCCCCCCNc1nc(NCC2CCN(C)CC2)nc(SCCCCCCCCCCC)n1 [S11N13 D10],3.8%
8,CCCCCCCCCCCCCCCCCCNc1nc(NCCN(CC)CC)nc(SCCCCCCCCCCC)n1 [S11N18 D7],3.4%
9,CCCCCCCCCCCCCCSc1nc(NCCCCCCCCCCC)nc(NCCN2CCCCC2)n1 [S14N11 D4],3.1%
10,CCCCCCCCCCCCCCCCSc1nc(NCCCCCCCC)nc(NCCCN(C)C)n1 [S16N8 D6],11.1%
11,CCCCCCCCCCCCCCSc1nc(NCCCCCC)nc(NCCN2CCOCC2)n1 [S14N6 D2],18.8%
12,CCCCCCCCCCCCCNc1nc(NCCN2CCCC2)nc(SCCCCCCCC)n1 [S8N13 D3],30.5%
13,CCCCCCCCCCCCCCCCCCSc1nc(NCCCCCC)nc(NCCN(C)C)n1 [S18N6 D1],6.9%
14,CCCCCCCCCCCCCCCNc1nc(NCCCN2CCN(C)CC2)nc(SCCCCCCCCCCCCCC)n1 [S14N15 D9],0.7%
15,CCCCCCCCCCCCCCSc1nc(NCCCCCC)nc(NCCCN2CCOCC2)n1 [S14N6 D8],13.6%
16,CCCCCCCCCCCCCCCCCCSc1nc(NCCCCCCCCC)nc(NCCCN2CCN(C)CC2)n1 [S18N9 D9],0.0%
17,CCCCCCCCCCCCCCCCCCSc1nc(NCCCCCCCCCCCC)nc(NCCCN2CCOCC2)n1 [S18N12 D8],0.0%
18,CCCCCCCCCCCCNc1nc(NCCCN(C)C)nc(SCCCCCCC)n1 [S7N12 D6],54.6%
19,CCCCCCCCCCCCSc1nc(NCCN2CCOCC2)nc(SCCCCCCCC)n1 [S8S12 D2],16.1%
20,CCCCCCCCCCCCCCCCSc1nc(NCCCCCCCCCCC)nc(NCCN2CCOCC2)n1 [S16N11 D2],9.6%
21,CCCCCCCCCCCNc1nc(NCCN2CCN(C)CC2)nc(SCCCCCCCCCCC)n1 [S11N11 D5],10.1%
22,CCCCCCCCCCCCCCSc1nc(NCCCCCCC)nc(NCCN2CCOCC2)n1 [S14N7 D2],18.7%
23,CCCCCCCCCCCCCCCCCCSc1nc(NCCCCCCCC)nc(NCCCN2CCN(C)CC2)n1 [S18N8 D9],6.6%
24,CCCCCCCCCCCCCCCNc1nc(NCCN2CCN(C)CC2)nc(SCCCCCC)n1 [S6N15 D5],22.3%
